Measurements: patent publication US20080076812A1 (priority 2006, published 2008)
Values joined by “and” are separate entries in the source; they are usually repeats but may differ in a detail not shown here. Equal entries are not always repeated.

Test: Drug-excipient compatibility study
Details: binary drug/excipient mixture, 40° C./75% RH open bottle; sodium salt

Cc1cc2c(cc1CC(=O)c1sccc1S(=O)(=O)[N-]c1onc(C)c1Cl)OCO2.[Na+] [Sitaxsentan Sodium, N-(4-chloro-3-methyl-5-isoxazolyl)-2-[2-methyl-4,5-(methylenedioxy)phenylacetyl]-thiophene-3-sulfonamide, sodium salt]
Assay (%) T = 2 Weeks: 98.0%
Total Related Substanes (%) T = 2 Weeks: 0.19% and 0.18%
Total Related Substanes (%) T = 4 Weeks: 0.24% and 0.12%
